Experimental data as given in the supplement of paper PMC10307832.

Assays:
Assay in all cases: relative viability (nuclei count vs DMSO), 5 days (fraction); higher = more cells survive
ABC-1 = tested on: ABC-1
In short: (§1)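 One day after seeding in 1536-well plates, lung cancer cell lines were dosed by pin tool. Dosing was either single-drug or a fixed anchor-drug dose plus five library-drug doses (not always all listed) in √10 steps. After 5 days, nuclei were stained in one fix-and-stain step and counted on 4× images, and relative viability is the nuclei count of treated wells over that of vehicle wells, given as the median of duplicate plates.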

CAL-12T = tested on: CAL-12T
In short: as §1

COR-L23 = tested on: COR-L23
In short: as §1

EMC-BAC-2 = tested on: EMC-BAC-2
In short: as §1

HARA = tested on: HARA
In short: as §1

HCC-366 = tested on: HCC-366
In short: as §1

HOP-62 = tested on: HOP-62
In short: as §1

LK-2 = tested on: LK-2
In short: as §1

NCI-H1437 = tested on: NCI-H1437
In short: as §1

NCI-H1563 = tested on: NCI-H1563
In short: as §1

NCI-H1650 = tested on: NCI-H1650
In short: as §1

NCI-H1651 = tested on: NCI-H1651
In short: as §1

NCI-H1734 = tested on: NCI-H1734
In short: as §1

NCI-H1755 = tested on: NCI-H1755
In short: as §1

NCI-H2347 = tested on: NCI-H2347
In short: as §1

NCI-H3122 = tested on: NCI-H3122
In short: as §1

NCI-H441 = tested on: NCI-H441
In short: as §1

NCI-H596 = tested on: NCI-H596
In short: as §1

NCI-H727 = tested on: NCI-H727
In short: as §1

PC-3 [JPC-3] = tested on: PC-3 [JPC-3]
In short: as §1

RERF-LC-KJ = tested on: RERF-LC-KJ
In short: as §1

SK-LU-1 = tested on: SK-LU-1
In short: as §1

UMC-11 = tested on: UMC-11
In short: as §1

## CCNC(=O)c1noc(-c2cc(C(C)C)c(O)cc2O)c1-c1ccc(CN2CCOCC2)cc1 [Luminespib] + COc1cccc2cc(-c3nc([C@H]4CC[C@H](C(=O)O)CC4)n4ncnc(N)c34)[nH]c12 [OSI-027] (partner 0.5 µM)
ABC-1; first compound 0.002 µM
  relative viability: 0.532
ABC-1; first compound 0.006325 µM
  relative viability: 0.476
ABC-1; first compound 0.02 µM
  relative viability: 0.312
ABC-1; first compound 0.06325 µM
  relative viability: 0.195
ABC-1; first compound 0.2 µM
  relative viability: 0.186
CAL-12T; first compound 0.002 µM
  relative viability: 0.799
CAL-12T; first compound 0.006325 µM
  relative viability: 0.63
CAL-12T; first compound 0.02 µM
  relative viability: 0.21
CAL-12T; first compound 0.06325 µM
  relative viability: 0.0898
CAL-12T; first compound 0.2 µM
  relative viability: 0.0995
COR-L23; first compound 0.002 µM
  relative viability: 0.925
COR-L23; first compound 0.006325 µM
  relative viability: 0.655
COR-L23; first compound 0.02 µM
  relative viability: 0.508
COR-L23; first compound 0.06325 µM
  relative viability: 0.079
COR-L23; first compound 0.2 µM
  relative viability: 0.0776
EMC-BAC-2; first compound 0.002 µM
  relative viability: 0.426
EMC-BAC-2; first compound 0.006325 µM
  relative viability: 0.354
EMC-BAC-2; first compound 0.02 µM
  relative viability: 0.415
EMC-BAC-2; first compound 0.06325 µM
  relative viability: 0.348
EMC-BAC-2; first compound 0.2 µM
  relative viability: 0.184
HARA; first compound 0.002 µM
  relative viability: 0.511
HARA; first compound 0.006325 µM
  relative viability: 0.281
HARA; first compound 0.02 µM
  relative viability: 0.381
HARA; first compound 0.06325 µM
  relative viability: 0.0542
HARA; first compound 0.2 µM
  relative viability: 0.0658
HCC-366; first compound 0.002 µM
  relative viability: 1.11
HCC-366; first compound 0.006325 µM
  relative viability: 0.832
HCC-366; first compound 0.02 µM
  relative viability: 0.698
HCC-366; first compound 0.06325 µM
  relative viability: 0.0495
HCC-366; first compound 0.2 µM
  relative viability: 0.0391
HOP-62; first compound 0.002 µM
  relative viability: 0.83
HOP-62; first compound 0.006325 µM
  relative viability: 0.758
HOP-62; first compound 0.02 µM
  relative viability: 0.648
HOP-62; first compound 0.06325 µM
  relative viability: 0.428
HOP-62; first compound 0.2 µM
  relative viability: 0.111
LK-2; first compound 0.002 µM
  relative viability: 0.209
LK-2; first compound 0.006325 µM
  relative viability: 0.191
LK-2; first compound 0.02 µM
  relative viability: 0.149
LK-2; first compound 0.06325 µM
  relative viability: 0.12
LK-2; first compound 0.2 µM
  relative viability: 0.136
NCI-H1437; first compound 0.002 µM
  relative viability: 0.838
NCI-H1437; first compound 0.006325 µM
  relative viability: 0.845
NCI-H1437; first compound 0.02 µM
  relative viability: 0.466
NCI-H1437; first compound 0.06325 µM
  relative viability: 0.57
NCI-H1437; first compound 0.2 µM
  relative viability: 0.187
NCI-H1563; first compound 0.002 µM
  relative viability: 0.756
NCI-H1563; first compound 0.006325 µM
  relative viability: 0.697
NCI-H1563; first compound 0.02 µM
  relative viability: 0.585
NCI-H1563; first compound 0.06325 µM
  relative viability: 0.473
NCI-H1563; first compound 0.2 µM
  relative viability: 0.468
NCI-H1650; first compound 0.002 µM
  relative viability: 0.717
NCI-H1650; first compound 0.006325 µM
  relative viability: 0.44
NCI-H1650; first compound 0.02 µM
  relative viability: 0.163
NCI-H1650; first compound 0.06325 µM
  relative viability: 0.0992
NCI-H1650; first compound 0.2 µM
  relative viability: 0.148
NCI-H1651; first compound 0.002 µM
  relative viability: 0.818
NCI-H1651; first compound 0.006325 µM
  relative viability: 0.622
NCI-H1651; first compound 0.02 µM
  relative viability: 0.42
NCI-H1651; first compound 0.06325 µM
  relative viability: 0.377
NCI-H1651; first compound 0.2 µM
  relative viability: 0.18
NCI-H1734; first compound 0.002 µM
  relative viability: 0.538
NCI-H1734; first compound 0.006325 µM
  relative viability: 0.555
NCI-H1734; first compound 0.02 µM
  relative viability: 0.352
NCI-H1734; first compound 0.06325 µM
  relative viability: 0.168
NCI-H1734; first compound 0.2 µM
  relative viability: 0.156
NCI-H1755; first compound 0.002 µM
  relative viability: 0.768
NCI-H1755; first compound 0.006325 µM
  relative viability: 0.707
NCI-H1755; first compound 0.02 µM
  relative viability: 0.626
NCI-H1755; first compound 0.06325 µM
  relative viability: 0.206
NCI-H1755; first compound 0.2 µM
  relative viability: 0.113
NCI-H2347; first compound 0.002 µM
  relative viability: 0.414
NCI-H2347; first compound 0.006325 µM
  relative viability: 0.355
NCI-H2347; first compound 0.02 µM
  relative viability: 0.41
NCI-H2347; first compound 0.06325 µM
  relative viability: 0.185
NCI-H2347; first compound 0.2 µM
  relative viability: 0.227
NCI-H3122; first compound 0.002 µM
  relative viability: 1.01
NCI-H3122; first compound 0.006325 µM
  relative viability: 0.787
NCI-H3122; first compound 0.02 µM
  relative viability: 0.142
NCI-H3122; first compound 0.06325 µM
  relative viability: 0.114
NCI-H3122; first compound 0.2 µM
  relative viability: 0.105
NCI-H441; first compound 0.002 µM
  relative viability: 0.655
NCI-H441; first compound 0.006325 µM
  relative viability: 0.588
NCI-H441; first compound 0.02 µM
  relative viability: 0.286
NCI-H441; first compound 0.06325 µM
  relative viability: 0.142
NCI-H441; first compound 0.2 µM
  relative viability: 0.16
NCI-H596; first compound 0.002 µM
  relative viability: 0.797
NCI-H596; first compound 0.006325 µM
  relative viability: 0.788
NCI-H596; first compound 0.02 µM
  relative viability: 0.415
NCI-H596; first compound 0.06325 µM
  relative viability: 0.642
NCI-H596; first compound 0.2 µM
  relative viability: 0.377
NCI-H727; first compound 0.002 µM
  relative viability: 0.72
NCI-H727; first compound 0.006325 µM
  relative viability: 0.549
NCI-H727; first compound 0.02 µM
  relative viability: 0.463
NCI-H727; first compound 0.06325 µM
  relative viability: 0.33
NCI-H727; first compound 0.2 µM
  relative viability: 0.23
PC-3 [JPC-3]; first compound 0.002 µM
  relative viability: 0.813
PC-3 [JPC-3]; first compound 0.006325 µM
  relative viability: 0.718
PC-3 [JPC-3]; first compound 0.02 µM
  relative viability: 0.583
PC-3 [JPC-3]; first compound 0.06325 µM
  relative viability: 0.58
PC-3 [JPC-3]; first compound 0.2 µM
  relative viability: 0.225
RERF-LC-KJ; first compound 0.002 µM
  relative viability: 0.584
RERF-LC-KJ; first compound 0.006325 µM
  relative viability: 0.536
RERF-LC-KJ; first compound 0.02 µM
  relative viability: 0.346
RERF-LC-KJ; first compound 0.06325 µM
  relative viability: 0.207
RERF-LC-KJ; first compound 0.2 µM
  relative viability: 0.195
SK-LU-1; first compound 0.002 µM
  relative viability: 0.356
SK-LU-1; first compound 0.006325 µM
  relative viability: 0.201
SK-LU-1; first compound 0.02 µM
  relative viability: 0.136
SK-LU-1; first compound 0.06325 µM
  relative viability: 0.0733
SK-LU-1; first compound 0.2 µM
  relative viability: 0.0594
UMC-11; first compound 0.002 µM
  relative viability: 0.538
UMC-11; first compound 0.006325 µM
  relative viability: 0.42
UMC-11; first compound 0.02 µM
  relative viability: 0.303
UMC-11; first compound 0.06325 µM
  relative viability: 0.224
UMC-11; first compound 0.2 µM
  relative viability: 0.207
